Measurements: the supplement of paper PMC10307832

Key:
Assay in all cases: relative viability (nuclei count vs DMSO), 5 days (fraction); higher = more cells survive
Nelarabine + Phenformin = compound: COc1nc(N)nc2c1ncn2[C@@H]1O[C@H](CO)[C@@H](O)[C@@H]1O [Nelarabine] + N=C(N)NC(=N)NCCc1ccccc1 [Phenformin] (partner 250 µM)
Summary of the method: (§1)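 Each reported value is a median over duplicate plates. It expresses relative viability: treated-well nuclei count divided by vehicle-well nuclei count. Lung cancer cell lines in 1536-well plates were dosed by pin tool a day after seeding, alone with one drug or with a fixed anchor-drug dose plus five library-drug doses (not always all listed) in √10 steps, and nuclei were counted after 5 days.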

Nelarabine + Palbociclib = compound: COc1nc(N)nc2c1ncn2[C@@H]1O[C@H](CO)[C@@H](O)[C@@H]1O [Nelarabine] + CC(=O)c1c(C)c2cnc(Nc3ccc(N4CCNCC4)cn3)nc2n(C2CCCC2)c1=O [Palbociclib] (partner 0.5 µM)
Summary of the method: as §1

Nelarabine + Alpelisib = compound: COc1nc(N)nc2c1ncn2[C@@H]1O[C@H](CO)[C@@H](O)[C@@H]1O [Nelarabine] + Cc1nc(NC(=O)N2CCC[C@H]2C(N)=O)sc1-c1ccnc(C(C)(C)C(F)(F)F)c1 [Alpelisib] (partner 2 µM)
Summary of the method: as §1

Nelarabine + Tozasertib = compound: COc1nc(N)nc2c1ncn2[C@@H]1O[C@H](CO)[C@@H](O)[C@@H]1O [Nelarabine] + Cc1cc(Nc2cc(N3CCN(C)CC3)nc(Sc3ccc(NC(=O)C4CC4)cc3)n2)n[nH]1 [Tozasertib] (partner 0.1 µM)
Summary of the method: as §1

Cell Line	relative viability (Nelarabine + Phenformin; first compound 0.01 µM)	relative viability (Nelarabine + Phenformin; first compound 0.03162 µM)	relative viability (Nelarabine + Phenformin; first compound 0.1 µM)	relative viability (Nelarabine + Phenformin; first compound 0.3162 µM)	relative viability (Nelarabine + Phenformin; first compound 1 µM)	relative viability (Nelarabine + Palbociclib; first compound 0.01 µM)	relative viability (Nelarabine + Palbociclib; first compound 0.03162 µM)	relative viability (Nelarabine + Palbociclib; first compound 0.1 µM)	relative viability (Nelarabine + Palbociclib; first compound 0.3162 µM)	relative viability (Nelarabine + Palbociclib; first compound 1 µM)	relative viability (Nelarabine + Alpelisib; first compound 0.01 µM)	relative viability (Nelarabine + Alpelisib; first compound 0.03162 µM)	relative viability (Nelarabine + Alpelisib; first compound 0.1 µM)	relative viability (Nelarabine + Alpelisib; first compound 0.3162 µM)	relative viability (Nelarabine + Alpelisib; first compound 1 µM)	relative viability (Nelarabine + Tozasertib; first compound 0.01 µM)	relative viability (Nelarabine + Tozasertib; first compound 0.03162 µM)	relative viability (Nelarabine + Tozasertib; first compound 0.1 µM)	relative viability (Nelarabine + Tozasertib; first compound 0.3162 µM)	relative viability (Nelarabine + Tozasertib; first compound 1 µM)
LU99A	0.88	0.767	0.837	0.864	0.854	0.48	0.34	0.429	0.43	0.399	0.517	0.415	0.519	0.476	0.54	0.287	0.253	0.239	0.264	0.279
LXF-289	0.532	0.574	0.526	0.571	0.524	0.708	0.548	0.62	0.625	0.59	1.19	1.05	1.01	1.11	1.05	0.222	0.234	0.173	0.232	0.233
NCI-H522	0.727	0.661	0.594	0.716	0.728	1.16	1.07	0.957	0.947	1.02						0.529	0.605	0.456	0.615	0.627
NCI-H596	0.778	0.749	0.747	0.812	0.86						0.532	0.504	0.525	0.577	0.504	1.07	0.835	0.879	0.862	0.827
NCI-H1299											1.16	1.11	1.04	1.08	1.2					
NCI-H1563	0.707	0.665	0.63	0.73	0.665						0.956	0.858	0.886	1	0.919					
NCI-H1648							0.27		0.292	0.215						0.456	0.405	0.43	0.601	0.383
NCI-H1650	0.39	0.427	0.379	0.436	0.445	0.255	0.317	0.337	0.32	0.266						0.393	0.307	0.331	0.458	0.378
NCI-H1703											0.395	0.278	0.385	0.366	0.409					
NCI-H1792	0.211	0.4	0.261	0.3	0.323		0.58	0.904	0.78	0.922	0.908		0.83	0.688	0.828					
NCI-H2342	0.554	0.522	0.503	0.67	0.566	0.557	0.463	0.529	0.521	0.554						0.532	0.513	0.446	0.478	0.462
SW 900	0.592	0.583	0.546	0.784	0.635	0.567	0.604	0.504	0.6	0.593						0.617	0.476	0.635	0.611	0.532
